# Source: patent US9844546B2, “Antibody against human HIF hydroxylase” (OXFORD UNIVERSITY INNOVATION LIMITED, priority 2001, dated 2017)
# Where no end group is shown, it is not given here. [ ]: non-standard residue; d: D form. The star is where a group is joined. Biotin = O=C1N[C@H]2[C@H](CS[C@H]2CCCCC(=O)*)N1; Hyp = O=C(O)[C@@H]1C[C@@H](O)CN1
# Key:
# C. elegans = assay: Immunoblot of ceHIF (HIF-1) in extracts of treated worms; format: in vivo; conditions: 200 μM in liquid media, 6 or 16 hrs
# Method: Immunoblots of ceHIF levels in extracts of c. elegans were carried out to monitor regulation by hypoxia and iron chelation. Firstly, the oxygen dependence of protein induction was analysed. Worms were grown on plates in bell jars flushed with air (N), or with oxygen/balance nitrogen having an oxygen concentration of 5%, 1%, 0.5% or 0.1% for 18 hrs. A graded increase in protein level was seen as the oxygen level was reduced below 5% with the highest level of induction at 0.5 and 0.1% oxygen concentration. The time course of protein induction was then studied. Worms were grown in bell jars flushed with a 0.1% oxygen/balance nitrogen mixture for 0, 4, 8, 16 or 24 hrs before preparation of extracts. […] The time course of protein decay on re-oxygenation was then assessed. Worms were grown in bell jars flushed with air (N) or a 0.1% oxygen/balance nitrogen mixture. Extracts were made either immediately, or after 4 and 8 minutes of re-oxygenation. Decay of ceHIF protein was very rapid on re-oxygenation. […] A time course RNAse protection assay showing cehif mRNA levels in worms exposed to 0.1% oxygen/balance nitrogen for 0, 4, 8, 16 and 24 hrs was carried out. No induction of ceHIF mRNA by hypoxia was seen. […] Induction by iron chelation was also studied in C. elegans. […]
# EGLN-2 and EGLN-3 = assay: Modification and pVHL binding assay with reticulocyte lysate programmed with EGLN-2 or EGLN-3; format: biochemical, human; conditions: desferrioxamine 200 μM, cobaltous chloride 200 μM
# Description: Protein containing HIF-1 sequence (amino acids 549-582) was generated in a reticulocyte in vitro transcription translation reaction in the presence of 100 micromolar desferrioxamine, retrieved and then exposed to […] translates containing the putative enzymes as described above. These proteins contain the critical proline (564) which can be modified by hydroxylation and which enables recognition by von Hippel Lindau tumour suppressor protein (pVHL).
# The modification of the HIF-1 sequence was assayed by the binding of the HIF-1 to radiolabelled pVHL, generated by in vitro transcription and translation of a pcDNA3 vector containing the human wild type pVHL open reading frame in a rabbit reticulocyte lysate in the presence of ^35S-methionine.
# Modification and pVHL binding assays were performed as described above. Rabbit reticulocyte lysate was programmed with pcDNA3 based plasmids containing no insert, an insert encoding the full open reading frame of the human homologue of C. elegans Egl-9 known as EGLN-2, or an insert encoding the full open reading frame of the human homologue known as EGLN-3. Modification was performed in the absence of additives, in the presence of oxalylglycine, oxalylglycine plus 2-oxoglutarate, 200 μM desferrioxamine or 200 μM cobaltous chloride.
# HIF-α/pVHL interaction = assay: Interaction of HIF-1α and pVHL.HA reticulocyte IVTTs, anti-HA co-immunoprecipitation; format: biochemical, human; conditions: 100 μM added to the HIF-1α IVTT
# Method: ^35S-Methionine labelled […] subunits and pVHL.HA were produced separately by IVTT (in vitro transcription and translation) in reticulocyte lysates. IVTTs were performed under different conditions, mixed, and assayed for interaction by anti-HA co-immunoprecipitation. These in vitro assays allowed analysis of the HIFα/pVHL interaction using the recombinant proteins.
# Labelled HIF-1α and pVHL.HA were generated separately in reticulocyte lysates (IVTT), in the presence or absence of Co (II), desferrioxamine, or Fe(II). Lysates were mixed in various combinations, and interactions assayed by anti-HA immunoprecipitation.
# • 1. G. L. Semenza, Genes Dev 14, 1983-91. (2000). • 2. N. V. Iyer, et al., Genes Dev. 12, 149-162 (1997). • 3. E. Maltepe, J. V. Schmidt, D. Baunoch, C. A. Bradfield, M. C. Simon, Nature 386, 403-407 (1997). • 4. G. L. Wang, B.-H. Jiang, E. A. Rue, G. L. Semenza, Proc. Natl. Acad. Sci. USA 92, 5510-5514 (1995). • 5. S. Salceda, J. Caro, J. Biol. Chem. 272, 22642-22647 (1997). • 6. L. E. Huang, J. Gu, M. Schau, H. F. Bunn, Proc. Natl. Acad. Sci. USA 95, 7987-7992 (1998). • 7. M. S. Wiesener, et al., Blood 92, 2260-2268 (1998). • 8. P. H. Maxwell, et al., Nature 399, 271-275 (1999). • 9. K. Iwai, et al., Proc. Natl. Acad. Sci. USA 96, 12436-12441 (1999). • 10. J. Lisztwan, G. Imbert, C. Wirbelauer, M. Gstaiger, W. Krek, Genes Dev 13, 1822-33 (1999). • 11. M. E. Cockman, et al., J Biol Chem (2000). • 12. M. Ohh, et al., Nat Cell Biol 2, 423-7. (2000). • 13. T. Kamura, et al., Proc Natl Acad Sci USA 97, 10430-5. (2000). • 14. K. Tanimoto, Y. Makino, T. Pereira, L. Poellinger, Embo J 19, 4298-309. (2000). • 15. M. A. Goldberg, S. P. Dunning, H. F. Bunn, Science 242, 1412-1415 (1988). • 16. G. L. Wang, G. L. Semenza, Blood 82, 3610-3615 (1993). • 17. G. L. Semenza, Cell 98, 281-284 (1999). • 18. Hypoxia (<0.1% oxygen) was obtained in a workstation with O2, CO2 and temperature control (Ruskinn Technologies, Leeds, UK). For hypoxic harvest, buffers were preincubated in the chamber overnight. […]
# VHL-1 = biological target: T1, VHL-1 (Caenorhabditis elegans, UniProt Q19213); assay: Peptide blocking of HIF-1 capture by HA.VHL-1 and capture of native VHL-1 by biotinylated peptides; format: binding, C. elegans; conditions: for blocking of capture of pretreated HIF-1 by HA.VHL-1: peptide 1 μM
# T1 construct: made in house; host or cells: TNT rabbit reticulocyte lysate, IVTT
# T1 sequence (Q19213 1-174): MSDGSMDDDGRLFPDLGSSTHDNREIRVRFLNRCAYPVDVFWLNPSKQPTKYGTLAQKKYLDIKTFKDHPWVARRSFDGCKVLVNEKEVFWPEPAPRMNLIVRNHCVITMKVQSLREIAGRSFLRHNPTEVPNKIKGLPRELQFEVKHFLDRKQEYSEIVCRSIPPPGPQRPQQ
# Method: For peptide blocking experiments peptides (final conc. 1 μM) were pre-incubated with VHL-1 for 15 min before addition to the interaction.
# To test whether hydroxylation of the critical P621 residue in C. elegans HIF-1 could indeed promote binding to VHl-1, we synthesised N-terminal biotinylated peptides corresponding to residues 607-634 of C. elegans HIF-1 that contained either a proline (B28Pro) or a (2S, 4R)-trans-hydroxyproline residue (B28Hyp) at position 621.
# Furthermore. […] Finally, to test the importance of prolyl hydroxylation in regulating C. elegans HIF-1 in vivo we exposed worms to the cell-penetrating prolyl hydroxylase inhibitor, dimethyloxalylglycine.
molecule,measurement,setting,value
"c1ccc(-c2ccccn2)nc1 [2′, 2′ dipyrridyl, reference compound]",ceHIF protein level,C. elegans,striking Induction of ceHIF
CC(=O)N(O)CCCCCNC(=O)CCC(=O)N(O)CCCCCNC(=O)CCC(=O)N(O)CCCCCN [desferrioxamine],Enzyme activity (modification of HIF-1 to VHL binding form),EGLN-2 and EGLN-3,diminished
same,capture of HIF-1α by pVHL.HA,HIF-α/pVHL interaction,greatly diminished capture
"B28Hyp: N-terminal biotinylated peptide, residues 607-634 of C. elegans HIF-1, (2S, 4R)-trans-hydroxyproline at position 621 (Biotin-DDLQWEEPDLSCLA[Hyp]FVDTYDMMQMDEG)",blocking of capture of pretreated HIF-1 by HA.VHL-1,VHL-1,blocked capture
same,capture of native VHL-1 from worm extracts,VHL-1; wild type but not vhl-1 mutant worms,captured immunodetectable native VHL-1
"B28Pro: N-terminal biotinylated peptide, residues 607-634 of C. elegans HIF-1, proline at position 621 (Biotin-DDLQWEEPDLSCLAPFVDTYDMMQMDEG)",blocking of capture of pretreated HIF-1 by HA.VHL-1,VHL-1,not
